In ChEMBL document CHEMBL4739717, “Methods of treating cartilage disorders through inhibition of clk and dyrk” (2020):

What was measured:
[1] = molecular target: Dual specificity tyrosine-phosphorylation-regulated kinase 1A (Homo sapiens, UniProt Q13627); test: Inhibition of recombinant DYRK1A (unknown origin) using Ser/Thr 18 peptide as substrate incubated for 1 hr in presence of ATP by FRET assay
[2] = Inhibition of IL1-beta induced MMP3 expression levels in human chondrocytes assessed as MMP3 levels incubated for 2hrs followed by IL1-beta stimulation and measured after overnight incubation by LANCE assay; type: functional, cell-based; details: Chondrocyte
[3] = Effect on Wnt signaling pathway in human SW480 cells harbouring TCF/LEF luciferase reporter gene and SP5-Luc reporter gene incubated for 36 to 48 hrs by luminescence assay; type: cell-based

Structure (SMILES) | EC50 [1] | EC50 [2] | EC50 [3]
CC(C)NC(=O)c1n[nH]c2ccc(-c3cncc(NC4CCNCC4)n3)cc12 | 0.001 µM | 2.74 µM | 2.4 µM
CN1CCC(Nc2cc(C(=O)Nc3cc4cc(-c5cnn(C)c5)ccc4cn3)ccn2)CC1 | 0.002 µM | 3 µM | 0.0656 µM
Cn1ncc(-c2ccc3cnc(NC(=O)[C@H]4CC[C@H](CO)CC4)cc3c2)c1CN1CCCCC1 | 0.003 µM | 3 µM | 0.594 µM
CC(C)CC(=O)Nc1cncc(-c2cnc3[nH]nc(-c4nc5c(-c6cccc(F)c6)cncc5[nH]4)c3c2)c1 | 0.002 µM | 3 µM | 0.0006 µM
COc1ccc(NC(=O)c2n[nH]c3ccc(-c4cncc(CO)c4)cc23)cn1 | 0.001 µM | 3 µM | 0.0966 µM
Cc1n[nH]c2ccc(-c3cncc(OC[C@@H](N)Cc4ccccc4)c3)cc12 | – | 3 µM | 0.262 µM
Cc1n[nH]c2ccc(-c3cncc(N4CCC(O)CC4)n3)cc12 | 0.022 µM | 0.0478 µM | 1.9 µM
O=C(Nc1ccc(N2CC(CO)(CO)C2)nc1)c1n[nH]c2ccc(-c3cncc(CN4CCCCC4)c3)cc12 | 0.002 µM | 0.0067 µM | 1.5 µM
O=C(Nc1cncc(-c2ccc3[nH]nc(-c4nc5c(-c6cccnc6)cncc5[nH]4)c3c2)c1)c1ccccc1 | 0.006 µM | 0.0019 µM | > 10 µM
Cc1n[nH]c2ccc(-c3cc(OC[C@H](N)Cc4ccccc4)cnn3)cc12 | 0.032 µM | 3 µM | 1.15 µM
CC#CC(=O)Nc1cc2cc(-c3cnn(C)c3)ccc2cn1 | 0.006 µM | 0.0328 µM | 0.513 µM
CC(C)OC(=O)N1CCC(n2cc(C(=O)Nc3cc4cc(-c5cnn(C)c5)ncc4cn3)cn2)CC1 | – | 0.154 µM | 0.824 µM
CN1CCC(Oc2ccc(NC(=O)c3n[nH]cc3/C=C/c3cccnc3)cn2)CC1 | 0.001 µM | 3 µM | 0.964 µM
CN1CCC2(CC1)CN(c1cc(C(=O)Nc3cc4cc(-c5cnn(C)c5CN5CCCCC5)cnc4cn3)ccn1)C2 | – | 3 µM | 0.607 µM
Cc1ncc(-c2ccc3cnc(NC(=O)C4(F)CC4)cc3c2)n1C | 0.006 µM | 0.0187 µM | 2.21 µM
CN1CCN(c2cc(C(=O)Nc3cc4cc(-c5ccc(N)nc5)ccc4cn3)ccn2)CC1 | – | 0.798 µM | 0.71 µM

Structure (SMILES) | EC50 [1] | EC50 [2] | EC50 [3]
Cc1ncc(-c2ccc3[nH]nc(-c4nc5c(-c6cc(F)cc(NCCN(C)C)c6)ccnc5[nH]4)c3n2)n1C | 0.008 µM | 0.0128 µM | 0.62 µM
CCN(C)Cc1cncc(-c2cnc3[nH]nc(-c4nc5c(-c6cccc(F)c6)cncc5[nH]4)c3c2)c1 | 0.008 µM | 0.0008 µM | 0.643 µM
CN1CCC(Oc2ccc(NC(=O)c3n[nH]c4ccc(-c5ccc(N)nc5)cc34)cc2)CC1 | 0.004 µM | 0.0049 µM | 0.477 µM
FC1(F)CCN(Cc2cncc(-c3cnc4[nH]nc(-c5nc6c(-c7ccoc7)nccc6[nH]5)c4c3)c2)C1 | 0.01 µM | 0.0001 µM | 0.162 µM
Cn1cc(-c2ccc3cnc(NC(=O)c4ccc5nccnc5c4)cc3n2)cn1 | – | 3 µM | 0.447 µM
Cc1ccncc1-c1cc2c(-c3nc4c(-c5cc(F)cc(CNS(C)(=O)=O)c5)cncc4[nH]3)n[nH]c2cn1 | 0.006 µM | 0.604 µM | 0.0966 µM
Fc1cccc(-c2cncc3[nH]c(-c4n[nH]c5cnc(-c6cncc(OC7CCNCC7)c6)cc45)nc23)c1 | 0.005 µM | 1.71 µM | > 10 µM
CN1CCN(c2cc(C(=O)Nc3cc4nc(-c5cnn(C)c5)ccc4cn3)ccn2)CC1 | – | 3 µM | 0.102 µM
COc1ccc(NC(=O)c2n[nH]cc2/C=C/c2cncc(CN3CCCCC3)c2)cn1 | 0.005 µM | 3 µM | 1.45 µM
COc1cncc(C(=O)Nc2c[nH]nc2C(=O)Nc2ccc3c(c2)CCN(C)C3)c1 | 0.008 µM | 3 µM | 0.558 µM
O=C(Nc1cccnc1)c1n[nH]c2cnc(-c3cncc(CN4CCCCC4)c3)cc12 | 0.004 µM | 0.138 µM | 0.849 µM
COc1cncc(C(=O)Nc2c[nH]nc2C(=O)Nc2ccc(CN(C)C)cc2)c1 | 0.01 µM | 3 µM | 0.123 µM
O=C(Nc1cccnc1)c1n[nH]c2ncc(-c3cccnc3)cc12 | 0.006 µM | 0.0022 µM | 0.795 µM
CS(=O)(=O)c1ccc(NC(=O)c2n[nH]c3ccc(-c4cncc(CN5CCCCC5)c4)cc23)cn1 | 0.001 µM | 0.0055 µM | 0.027 µM
Cc1ncc(C(=O)Nc2cc3cc(-c4cnc(C)n4C)ccc3cn2)s1 | 0.001 µM | 3 µM | 0.102 µM
O=C(Nc1cnccn1)c1n[nH]c2ccc(-c3cncc(CN4CCCCCC4)c3)cc12 | 0.002 µM | 3 µM | 0.43 µM
